Values after ≈ are worked out from the molar mass of the structure shown.
Assays:
Assay in all cases: in vitro antibacterial MIC, agar plate dilution
Format in all cases: cell-based
[1] = system: Staphylococcus aureus ATCC 25913; settings: ATCC25913, 18 hours, 35° C.
How it was run: (§1)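 Read-out is visible growth inhibition on Mueller-Hinton agar dilution plates incubated 18 hours at 35° C after inoculation of ~10^4 CFU (Steers device), with MIC reported in mcg/ml.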

[2] = system: Klebsiella oxytoca MOR 84-28; settings: MOR8428, 18 hours, 35° C.
How it was run: as §1

[3] = system: Klebsiella pneumoniae MOR 84-4; settings: Klebsiella pneumoniae, MOR844, 18 h, 35° C., read-out: MIC
How it was run: as §1

Klebsiella pneumoniae AD = settings: Klebsiella pneumoniae, 18 h, 35° C., read-out: MIC
How it was run: as §1

[4] = system: Enterobacter cloacae K 84-10; settings: Enterobacter cloacae, K8410, 18 h, 35° C., read-out: MIC
How it was run: as §1

[5] = system: Serratia marcescens K 84-18; settings: Serratia marcescens, K8418, 18 h, 35° C., read-out: MIC
How it was run: as §1

[6] = system: Proteus rettgeri CMC 84-41; settings: Providencia rettgeri, CMC8441, 18 h, 35° C., read-out: MIC
How it was run: as §1

[7] = system: Serratia marcescens F 0-35; settings: Serratia marcescens, F035, 18 h, 35° C., read-out: MIC
How it was run: as §1

[8] = system: Staphylococcus Spp saprophiticus VGH 84-50; settings: 18 hours, 35° C., read-out: MIC
How it was run: as §1

[9] = system: Staphylococcus epidermidis CMC 83-135; settings: CMC83135, 18 hours, 35° C., read-out: MIC
How it was run: as §1

Escherichia coli NAR 311 = settings: NAR311, 18 hours, 35° C., read-out: MIC
How it was run: as §1

[10] = system: Staphylococcus aureus ATTC 29213; settings: Staphylococcus aureus, ATTC29213, 18 h, 35° C., read-out: MIC
How it was run: as §1

[11] = system: Staphylococcus aureus VGH 84-46; settings: Staphylococcus aureus, VGH8446, 18 h, 35° C., read-out: MIC
How it was run: as §1

[12] = system: Escherichia coli ATCC 25922; settings: Escherichia coli, ATCC25922, 18 h, 35° C., read-out: MIC
How it was run: as §1

[13] = system: Staphylococcus epidermidis VGH 84-40; settings: VGH8440, 18 hours, 35° C., read-out: MIC
How it was run: as §1

[14] = system: Morganella morganii VGH 84-11; settings: VGH8411, 18 hours, 35° C., read-out: MIC
How it was run: as §1

[15] = system: Enterobacter cloacae VGH 84-37; settings: Enterobacter cloacae, VGH8437, 18 h, 35° C., read-out: MIC
How it was run: as §1

[16] = system: Streptococcus faecalis ATTC 29212; settings: Enterococcus faecalis, ATTC29212, 18 hours, 35° C., read-out: MIC
How it was run: as §1

[17] = system: Enterobacter aerogenes VGH 84-36; settings: Klebsiella aerogenes, VGH8436, 18 hours, 35° C., read-out: MIC
How it was run: as §1

[18] = system: Escherichia coli CMC 84-11; settings: Escherichia coli, CMC8411, 18 h, 35° C., read-out: MIC
How it was run: as §1

[19] = system: Staphylococcus aureus CMC 83-128; settings: CMC83128, 18 hours, 35° C., read-out: MIC
How it was run: as §1

[20] = system: Staphylococcus aureus Smith; settings: Staphylococcus aureus, 18 h, 35° C., read-out: MIC
How it was run: as §1

[21] = system: Streptococcus faecalis VGH 84-65; settings: Enterococcus faecalis, VGH8465, 18 h, 35° C., read-out: MIC
How it was run: as §1

[22] = system: Escherichia coli CMC 84-16; settings: Escherichia coli, CMC8416, 18 h, 35° C., read-out: MIC
How it was run: as §1

[23] = system: Escherichia coli PRNT 311; settings: PRNT311, 18 hours, 35° C., read-out: MIC
How it was run: as §1

[24] = system: Staphylococcus aureus VGH 84-45; settings: Staphylococcus aureus, VGH8445, 18 h, 35° C., read-out: MIC
How it was run: as §1

[25] = system: Morganella morganii CMC 84-37; settings: Morganella morganii, CMC8437, 18 h, 35° C., read-out: MIC
How it was run: as §1

[26] = system: Pseudomonas aeruginosa LL-1244; settings: Pseudomonas aeruginosa, LL1244, 18 h, 35° C., read-out: MIC
How it was run: as §1

[27] = system: Staphylococcus epidermidis IO 83-58; settings: IO8358, 18 hours, 35° C., read-out: MIC
How it was run: as §1

[28] = system: Staphylococcus aureus CMC 83-127; settings: Staphylococcus aureus, CMC83127, 18 h, 35° C., read-out: MIC
How it was run: as §1

[29] = system: Pseudomonas aeruginosa VGH 84-4; settings: Pseudomonas aeruginosa, VGH844, 18 h, 35° C., read-out: MIC
How it was run: as §1

| SMILES | MIC [2] [µg/mL] | MIC [3] [µg/mL] | MIC (Klebsiella pneumoniae AD) [µg/mL] | MIC [4] [µg/mL] | MIC [5] [µg/mL] | MIC [6] [µg/mL] | MIC [7] [µg/mL] | MIC [8] [µg/mL] | MIC [9] [µg/mL] | MIC (Escherichia coli NAR 311) [µg/mL] | MIC [10] [µg/mL] | MIC [11] [µg/mL] | MIC [12] [µg/mL] | MIC [13] [µg/mL] | MIC [14] [µg/mL] | MIC [15] [µg/mL] | MIC [16] [µg/mL] | MIC [17] [µg/mL] | MIC [18] [µg/mL] | MIC [19] [µg/mL] | also measured |
| --- | --- | --- | --- | --- | --- | --- | --- | --- | --- | --- | --- | --- | --- | --- | --- | --- | --- | --- | --- | --- | --- |
| CCn1cc(C(=O)O)c(=O)c2cc(F)c(N3CCNC(c4sc5ccccc5c4C)C3)cc21 (stereo not shown) [Example 22, 1-Ethyl-6-fluoro-1,4-dihydro-7-[3-(3-methylbenzo[b]-thien-2-yl)-1-piperazinyl]-4-oxo-3-quinolinecarboxylic acid] | > 256 | > 256 | > 256 | > 256 | > 256 | 256 (≈ 550 µM) | > 256 | 32 (≈ 68.7 µM) | 2 (≈ 4.3 µM) | > 256 | 4 (≈ 8.59 µM) | 2 (≈ 4.3 µM) | > 256 | 0.5 (≈ 1.07 µM) | 256 (≈ 550 µM) | > 256 | 256 (≈ 550 µM) | > 256 | > 256 | 4 (≈ 8.59 µM) | MIC [1]: 4 µg/mL (≈ 8.59 µM); MIC [20]: 2 µg/mL (≈ 4.3 µM); MIC [21]: 256 µg/mL (≈ 550 µM); MIC [22]: > 256 µg/mL; MIC [23]: > 256 µg/mL; MIC [24]: 2 µg/mL (≈ 4.3 µM); MIC [25]: 256 µg/mL (≈ 550 µM); MIC [26]: > 256 µg/mL; MIC [27]: 8 µg/mL (≈ 17.2 µM); MIC [28]: 0.5 µg/mL (≈ 1.07 µM); MIC [29]: > 256 µg/mL |
| CCCCCCCCCCCCOCC1CN(c2cc3c(cc2F)c(=O)c(C(=O)O)cn3CC)CCN1C (stereo not shown) [Example 75, 7-[3-[(Dodecyloxy)methyl]-4-methyl-1-piperazinyl]-1-ethyl-6-fluoro-1,4-dihydro-4-oxo-3-quinolinecarboxylic acid] | > 256 | > 256 | > 256 | > 256 | > 256 | > 256 | > 256 | > 256 | > 256 | > 256 | > 256 | > 256 | > 256 | > 256 | > 256 | > 256 | > 256 | > 256 | > 256 | > 256 | MIC [20]: > 256 µg/mL; MIC [21]: > 256 µg/mL; MIC [22]: > 256 µg/mL; MIC [23]: > 256 µg/mL; MIC [24]: > 256 µg/mL; MIC [25]: > 256 µg/mL; MIC [26]: > 256 µg/mL; MIC [27]: > 256 µg/mL; MIC [28]: > 256 µg/mL; MIC [29]: > 256 µg/mL |
